Read-outs that look alike come from different tables or passages of the source.
Test system: panel of 55 breast cancer cell lines
Experiment: Cell growth inhibition assay (Cell Titer Glo, 72 h, 9 doses; GI50, TGI, LC50)
Format: cell-based, human
Settings: Homo sapiens, read-out: GI50 (converted)

CC(C)C[C@H](NC(=O)[C@H](Cc1ccccc1)NC(=O)c1cnccn1)B(O)O [Bortezomib]
GI50 (600MPE cell line, censored GI50 values): 427 nM | GI50 (AU565, AU565 cell line, censored GI50 values): 5.25 nM | GI50 (AU565, cell line AU565): 5.25 nM | GI50 (BT-20, BT20 cell line, censored GI50 values): 46.8 nM | GI50 (BT-20, cell line BT20): 46.8 nM | GI50 (BT-474, BT474 cell line, censored GI50 values): 7.41 nM | GI50 (BT-474, cell line BT474): 7.41 nM | GI50 (BT-483, BT483 cell line, censored GI50 values): 19.5 nM | GI50 (BT-483, cell line BT483): 19.5 nM | GI50 (BT-549, BT549 cell line, censored GI50 values): 6.03 nM | GI50 (BT-549, cell line BT549): 6.03 nM | GI50 (CAMA-1, CAMA1 cell line, censored GI50 values): 16.6 nM | GI50 (CAMA-1, cell line CAMA1): 16.6 nM | GI50 (HCC38, HCC38 cell line, censored GI50 values): 11 nM | GI50 (HCC38, cell line HCC38): 11 nM | GI50 (HCC70, HCC70 cell line, censored GI50 values): 1.78 nM | GI50 (HCC70, cell line HCC70): 1.78 nM | GI50 (HCC202, HCC202 cell line, censored GI50 values): 7.24 nM | GI50 (HCC202, cell line HCC202): 7.24 nM | GI50 (HCC1143, HCC1143 cell line, censored GI50 values): 8.51 nM | GI50 (HCC1143, cell line HCC1143): 8.51 nM | GI50 (HCC1187, HCC1187 cell line, censored GI50 values): 3.39 nM | GI50 (HCC1187, cell line HCC1187): 3.39 nM | GI50 (HCC1395, HCC1395 cell line, censored GI50 values): 7.24 nM | GI50 (HCC1395, cell line HCC1395): 7.24 nM | GI50 (HCC1419, HCC1419 cell line, censored GI50 values): 4.37 nM | GI50 (HCC1419, cell line HCC1419): 4.37 nM | GI50 (HCC1428, HCC1428 cell line, censored GI50 values): 91.2 nM | GI50 (HCC1428, cell line HCC1428): 91.2 nM | GI50 (HCC1500, HCC1500 cell line, censored GI50 values): 12.3 nM | GI50 (HCC1500, cell line HCC1500): 12.3 nM | GI50 (HCC1806, HCC1806 cell line, censored GI50 values): 22.9 nM | GI50 (HCC1806, cell line HCC1806): 22.9 nM | GI50 (HCC1937, HCC1937 cell line, censored GI50 values): 7.59 nM | GI50 (HCC1937, cell line HCC1937): 7.59 nM | GI50 (HCC1954, HCC1954 cell line, censored GI50 values): 10 nM | GI50 (HCC1954, cell line HCC1954): 10 nM | GI50 (HCC2185 cell line, censored GI50 values): 4.47 nM | GI50 (HCC3153 cell line, censored GI50 values): 10.5 nM | GI50 (LY2 cell line, censored GI50 values): 603 nM | GI50 (MCF7, MCF7 cell line, censored GI50 values): 19.1 nM | GI50 (MCF7, cell line MCF7): 19.1 nM | GI50 (MDA-MB-134-VI, MDAMB134VI cell line, censored GI50 values): 8.32 nM | GI50 (MDA-MB-157, MDAMB157 cell line, censored GI50 values): 6.92 nM | GI50 (MDA-MB-157, cell line MDAMB157): 6.92 nM | GI50 (MDA-MB-175-VII, MDAMB175VII cell line, censored GI50 values): 5.25 nM | GI50 (MDA-MB-231, MDAMB231 cell line, censored GI50 values): 27.5 nM | GI50 (MDA-MB-231, cell line MDAMB231): 27.5 nM | GI50 (MDA-MB-361, MDAMB361 cell line, censored GI50 values): 6030 nM | GI50 (MDA-MB-361, cell line MDAMB361): 6030 nM | GI50 (MDA-MB-415, MDAMB415 cell line, censored GI50 values): 32.4 nM | GI50 (MDA-MB-415, cell line MDAMB415): 32.4 nM | GI50 (MDA-MB-436, MDAMB436 cell line, censored GI50 values): 8.71 nM | GI50 (MDA-MB-436, cell line MDAMB436): 8.71 nM | GI50 (MDA-MB-453, MDAMB453 cell line, censored GI50 values): 6.92 nM | GI50 (MDA-MB-453, cell line MDAMB453): 6.92 nM | GI50 (MDA-MB-468, MDAMB468 cell line, censored GI50 values): 14.1 nM | GI50 (MDA-MB-468, cell line MDAMB468): 14.1 nM | GI50 (SK-BR-3, SKBR3 cell line, censored GI50 values): 7.59 nM | GI50 (SK-BR-3, cell line SKBR3): 7.59 nM | GI50 (SUM52PE, SUM52PE cell line, censored GI50 values): 5.25 nM | GI50 (SUM52PE, cell line SUM52PE): 5.25 nM | GI50 (SUM149PT, SUM149PT cell line, censored GI50 values): 7.41 nM | GI50 (SUM149PT, cell line SUM149PT): 7.41 nM | GI50 (SUM185PE, SUM185PE cell line, censored GI50 values): 5.37 nM | GI50 (SUM185PE, cell line SUM185PE): 5.37 nM | GI50 (SUM225CWN, SUM225CWN cell line, censored GI50 values): 10.5 nM | GI50 (SUM225CWN, cell line SUM225CWN): 10.5 nM | GI50 (SUM1315MO2, SUM1315MO2 cell line, censored GI50 values): 13.8 nM | GI50 (SUM-159-PT, SUM159PT cell line, censored GI50 values): 7.41 nM | GI50 (SUM-159-PT, cell line SUM159PT): 7.41 nM | GI50 (T47D, T47D cell line, censored GI50 values): 8.32 nM | GI50 (T47D, cell line T47D): 8.32 nM | GI50 (UACC-812, UACC812 cell line, censored GI50 values): 24 nM | GI50 (UACC-812, cell line UACC812): 24 nM | GI50 (UACC-893, UACC893 cell line, censored GI50 values): 0.646 nM | GI50 (UACC-893, cell line UACC893): 0.646 nM | GI50 (ZR-75-1, ZR751 cell line, censored GI50 values): 17.4 nM | GI50 (ZR-75-1, cell line ZR751): 17.4 nM | GI50 (ZR-75B, ZR75B cell line, censored GI50 values): 132 nM | GI50 (ZR-75B, cell line ZR75B): 132 nM | GI50 (cell line 600MPE): 427 nM | GI50 (cell line HCC2185): 4.47 nM | GI50 (cell line HCC3153): 10.5 nM | GI50 (cell line LY2): 603 nM | GI50 (cell line MDAMB134V): 8.32 nM | GI50 (cell line MDAMB175V): 5.25 nM | GI50 (cell line SUM1315MO): 13.8 nM

— patent publication US10770169B2, “Method of providing a treatment to a subject based on a dynamic pathway map” (THE REGENTS OF THE UNIVERSITY OF CALIFORNIA, priority 2010, dated 2020)
